Entries after “also recorded” stand apart in the source; their conditions may differ.
Tests used:
ERK1 kinase = ERK1 kinase (Homo sapiens (Human), UniProt P27361); assay: ERK1 in vitro kinase activity assay (33P-ATP, MBP substrate, filter-binding); type: biochemical
Procedure: The ability of the compound to inhibit ERK1 and ERK2 kinase activity was measured.
20 mM Hepes (pH 7.5), 10 mM MgCl2, 1 mM ethylenebis(oxyethylenenitrilo)tetraacetic acid (EGTA), 0.02% Brij35, 0.02 mg/mL bovine serum albumin (BSA), 0.1 mM Na3VO4, 2 mM dithiothreitol (DTT), 1% DMSO.
The assay compound was dissolved in 100% DMSO to prepare a stock solution of specific concentration. The compound was serially diluted in DMSO solution using Integra Viaflo Assist smart pipette.
• 1) The substrate MBP was prepared in freshly prepared reaction buffer; • 2) ERK1 (or ERK2) kinase was added to the above-mentioned MBP solution and mixed gently; • 3) The compound dissolved in 100% DMSO was added to the kinase reaction system using ultrasound technology (Echo550; nanoliter range), and the mixture was incubated at room temperature for 20 minutes; • 4) 33P-ATP (specific concentration of […]) was added to the reaction system, and the reaction was started at this time; • 5) The mixture was incubated at room temperature for 2 hours; • 6) The amount of radioactivity was detected by filter-binding method; • 7) ERK1 (or ERK2) kinase activity was calculated as the ratio of the remaining kinase activity in the assay sample to the kinase activity of the control group (treated by DMSO). Curve was fitted using Prism (GraphPad software) and IC50 values were calculated. • 5.

[1] = Body weight and tolerance in A375 model animals; type: in vivo; details: 12.5, 25 and 50 mg/kg PO BID, to the 21st day
Procedure: • 3) Daily observation of assay animals: The development of this assay protocol and any modifications were evaluated and approved by the Institutional Animal Care and Use Committee (IACUC). The use and welfare of assay animals were carried out in accordance with the regulations of the Association for Assessment and Accreditation of Laboratory Animal Care (AAALAC). Animals were monitored daily for health and death. […] Animal deaths and side effects in each group were recorded based on the number of animals in each group. • 4) Formulation of assay compound • a) Vehicle group: 5% DMSO+95% (20% HP-β-CD). • b) Assay compound group: A quantitative amount of the assay compound was weighed in a formulation bottle. […] A corresponding volume of 20% HP-β-CD was added and then the mixture was vortexed to obtain a homogeneous suspension. • 5) Tumor measurement and assay indicator: • a) Tumor diameter was measured twice a week with a vernier caliper. The calculation formula of tumor volume was: TV=1/2×a×b^2, wherein a and b represent the long and short diameters of tumor, respectively: • b) The tumor-inhibitory efficacy of the compound was evaluated by TGI (%). […]

[2] = In vivo PK study in cynomolgus monkeys; design: species or system cynomolgus monkey; details: male cynomolgus monkeys
Procedure: Male cynomolgus monkeys were used as assay animals. After a single administration, the plasma concentration of the compound was measured and the pharmacokinetic behavior was evaluated.
Five healthy adult male cynomolgus monkeys were selected, wherein 2 animals were in an intravenous injection group, and 3 animals were in an oral group. The vehicle in the intravenous injection group was 5% DMSO+95% (20% HP-β-CD). The compound to be assayed was mixed with an appropriate amount of vehicle for intravenous injection, and dissolved with stirring to prepare a clear solution of 0.4 mg/mL. The clear solution was filtered by a microporous membrane, and then ready for use. The vehicle in the oral group was 5% DMSO+95% (20% HP-β-CD). The compound to be assayed was mixed with the vehicle, and dissolved with stirring to prepare a solution of 0.3 mg/mL. Cynomolgus monkeys were administered 1 mg/kg intravenously or 3 mg/kg orally, and then whole blood was collected for a certain period. Plasma was prepared. The drug concentration was analyzed by LC-MS/MS method, and the pharmacokinetic parameters were calculated by Phoenix WinNonlin software (Pharsight, USA).

Chain of ERK1 kinase (P27361 whole entry): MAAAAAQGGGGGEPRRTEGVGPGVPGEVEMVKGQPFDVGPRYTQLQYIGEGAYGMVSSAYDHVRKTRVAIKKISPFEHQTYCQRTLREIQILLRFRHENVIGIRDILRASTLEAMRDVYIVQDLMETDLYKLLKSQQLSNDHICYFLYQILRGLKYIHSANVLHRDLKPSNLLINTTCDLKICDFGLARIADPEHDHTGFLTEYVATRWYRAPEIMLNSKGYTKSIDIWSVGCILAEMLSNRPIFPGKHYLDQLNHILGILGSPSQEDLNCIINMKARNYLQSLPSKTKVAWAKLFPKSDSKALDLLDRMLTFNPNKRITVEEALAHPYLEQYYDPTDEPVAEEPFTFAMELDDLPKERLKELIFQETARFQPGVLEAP

## Cc1cccc(CN2C(=O)c3nc(-c4nc(Nc5ccnn5C)ncc4C)sc3C23COC3)n1 [WX001]
ERK1 kinase
  IC50: 1.4 nM
[1]
  body weight of animals: did not decrease significantly; also recorded: not observed to decrease significantly
  tolerance: good
[2]; cynomolgus monkey, plasma, intravenous, 1 mg/kg intravenously or 3 mg/kg orally
  clearance: 16.1 mL/min/kg
[2]; cynomolgus monkey, plasma, intravenous, 1 mg/kg intravenously or 3 mg/kg orally, read-out: Vdss
  Vd: 1.98 L/kg
[2]; cynomolgus monkey, plasma, 1 mg/kg intravenously or 3 mg/kg orally
  half-life: 2.41 h
[2]; cynomolgus monkey, plasma, 1 mg/kg intravenously, 3 mg/kg orally, oral bioavailability
  bioavailability: 50%
[2]; cynomolgus monkey, single dose, 1 mg/kg intravenously or 3 mg/kg orally, plasma
  Cmax: 921 nM
[2]; 3 mg/kg orally, AUCPO/Dose
  Oral DNAUC: 1152.35 nM · h/mpk
